Data reported in publication PMC8341910, “Structural and biophysical insights into the mode of covalent binding of rationally designed potent BMX inhibitors” (RSC Chemical Biology, 2020).
Converted amounts (≈) assume the structure as drawn. “And” between values parts separate entries of the source, which are not always exact repeats. Identical values can stand only once. Like-named read-outs stand apart in the source and are kept apart here. Values belong to the compound of their own block, whether it stands above or below them.

Columns and labels:
[1] = test system: LNCaP cells; experiment: Anti-proliferative co-treatment assays in LNCaP; assay type: cell-based; conditions: JS24 3 μM, JS25 5 μM, JS26 6 μM, 5 days; for cell viability reduction: co-treatment with Flutamide (50 μM)
[2] = in vitro; conditions: PAMPA
[3] = Dynamic light scattering, colloidal aggregation; assay type: physicochemical; conditions: deionized and filtered water (0.1% DMSO), kinetic from dmso stock, measured at 10 µM, 1 µM and 100 nM, 25 °C, read-out: DLS maximum soluble concentration at which no aggregates are observed
[4] = test system: LNCaP cells; experiment: LNCaP cell growth assay (CellTiter-Glo, 96 h); assay type: cell-based; conditions: Homo sapiens, read-out: GI50 LNCaP
Method: (§1) GI50 values are reported in μM and are the mean of three individual experiments performed in triplicate. N.d., non-determined, no growth inhibition observed within the concentrations tested.
(§2) Cellular activity Assay: LNCaP and PC-3 Cell Growth Assay
(§3) Cells were seeded in white, opaque-bottom 96-well plates at 5000 cells/well (LNCaP) or 2000 cells/well (PC-3) in a total volume of 100 µL of culture media.
(§4) fold) in 100 µL media were added to the cells 24 hours later. After 96 hours incubation cellular viability was assessed by CellTiter-Glo® (Promega) according to the manufacturer’s instructions. The values were normalized to vehicle and IC50 was calculated using GraphPad

[5] = biological target: T1, BMX (Homo sapiens, UniProt P51813); experiment: Kinetic characterization with ADP-Glo kinase assay; assay type: biochemical; design: purchased Promega Corporation (USA) V4512; conditions: duplicate, mean ± S.D.
T1 sequence (P51813 1-675): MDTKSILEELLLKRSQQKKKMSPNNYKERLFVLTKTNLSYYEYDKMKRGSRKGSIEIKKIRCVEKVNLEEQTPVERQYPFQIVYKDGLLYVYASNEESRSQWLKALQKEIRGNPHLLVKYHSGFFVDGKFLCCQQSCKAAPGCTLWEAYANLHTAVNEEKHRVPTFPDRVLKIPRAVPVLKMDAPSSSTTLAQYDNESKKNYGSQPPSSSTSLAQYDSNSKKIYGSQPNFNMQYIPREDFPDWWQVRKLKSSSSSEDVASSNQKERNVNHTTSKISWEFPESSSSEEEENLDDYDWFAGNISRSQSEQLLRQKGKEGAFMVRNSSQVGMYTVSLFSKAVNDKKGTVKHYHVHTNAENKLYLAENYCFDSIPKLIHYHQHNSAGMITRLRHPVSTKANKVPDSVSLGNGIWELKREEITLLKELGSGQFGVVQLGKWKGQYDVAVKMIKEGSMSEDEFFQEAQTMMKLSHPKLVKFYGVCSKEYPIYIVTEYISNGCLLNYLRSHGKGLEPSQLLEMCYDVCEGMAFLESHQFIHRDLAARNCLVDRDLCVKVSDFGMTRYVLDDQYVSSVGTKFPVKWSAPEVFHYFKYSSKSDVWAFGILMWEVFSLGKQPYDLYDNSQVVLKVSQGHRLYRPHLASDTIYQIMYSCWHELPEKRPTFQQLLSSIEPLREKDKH
From the text: The inactivation of BMX occurs in a two-step process that is governed by two parameters: the affinity of the initial non-covalent binding, KI, and the rate of the subsequent covalent bond-forming reaction with the thiol of the cysteine residue, kinact. […]. […] Thus, taking into account that all the analogues have the same Michael acceptor moiety, the enhanced activity must be a result of the structural modifications introduced in the scaffold. […]
Kinetic characterization using an ADP-GLOTM kinase assay:
The BMX enzyme system (Catalog. V4512) and the ADP-GloTM kinase assay were purchased from Promega Corporation (USA). In each kinase reaction, the concentration of BMX was set to 4.5 ng/µL. The peptide substrate Poly (4:1 Glu, Tyr) and ATP concentrations were set to 0.25 mg/mL and 50 µM, respectively. BMX was pre-incubated with different inhibitor concentrations (10-fold serial dilutions, starting at 1 mM), over different time periods (2 - 60 min), before initiating the kinase reactions. Reactions were started by adding 2.5X Poly E4Y1/ATP mixture. The reactions were carried out in a 384-well plate, stopping all at the same time with the addition of 5 µL of ADP-GloTM reagent, to consume the remaining ATP within 40 min. Then, 10 µL of kinase detection reagent was added into the wells and incubated for 30 min to produce a luminescence signal. The signal was measured using an Infinite M200 […]
observed rate constants for inhibition (kobs), at different inhibitor concentrations, were determined from the slope of a semi-logarithmic plot of inhibition versus time, and re-plotted against inhibitor concentration (nM). The experimental values were fitted into a hyperbolic function using GraphPad Prism 8 ([…]), to obtain the KI, kinact, and kinact/KI, as described previously.12 […]
(Thermo Fisher Scientific) using gold-coated glass needles. […]

[6] = test system: PC3 cells; experiment: PC-3 cell growth assay (CellTiter-Glo, 96 h); assay type: cell-based; conditions: Homo sapiens, read-out: GI50 PC3
Method: as §1, §2, §3, §4

[7] = biological target: BTK (Homo sapiens, UniProt Q06187); experiment: BTK biochemical activity assay (radiometric, KinaseProfiler); design: purchased Eurofins DiscoverX KinaseProfiler (contract assay); conditions: for IC50: duplicate, mean ± S.D., read-out: BTK inhibition IC50
BTK, sequence (Q06187 whole entry, species assumed): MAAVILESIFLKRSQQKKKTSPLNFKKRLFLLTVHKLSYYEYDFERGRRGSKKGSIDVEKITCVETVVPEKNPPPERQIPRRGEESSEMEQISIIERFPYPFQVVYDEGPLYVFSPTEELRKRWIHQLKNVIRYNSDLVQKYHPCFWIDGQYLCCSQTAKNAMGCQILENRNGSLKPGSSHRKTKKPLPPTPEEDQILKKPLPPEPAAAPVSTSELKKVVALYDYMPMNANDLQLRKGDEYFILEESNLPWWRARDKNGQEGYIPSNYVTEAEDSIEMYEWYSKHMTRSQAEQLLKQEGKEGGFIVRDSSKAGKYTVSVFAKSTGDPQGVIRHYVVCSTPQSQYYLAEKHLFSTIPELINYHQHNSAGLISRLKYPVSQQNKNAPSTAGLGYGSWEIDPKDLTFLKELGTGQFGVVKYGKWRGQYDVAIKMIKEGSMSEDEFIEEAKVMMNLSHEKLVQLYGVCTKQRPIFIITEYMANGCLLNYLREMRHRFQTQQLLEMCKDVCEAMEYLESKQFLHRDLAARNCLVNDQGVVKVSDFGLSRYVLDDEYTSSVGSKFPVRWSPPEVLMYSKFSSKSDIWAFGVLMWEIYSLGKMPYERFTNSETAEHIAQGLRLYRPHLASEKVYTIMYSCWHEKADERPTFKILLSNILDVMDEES

[8] = biological target: T1, BMX; experiment: BMX biochemical activity assay (HTRF, phosphorylation of a biotinylated peptide)
[9] = test system: H1299; experiment: Multi cell line growth assay (CellTiter-Glo, 72 h); assay type: cell-based, human; conditions: Homo sapiens, NCI-H1299, Bone marrow (so in the source), ND = no growth inhibition observed
[10] = pH 6.8
[11] = biological target: T2, recombinant human BMX protein (hBMX) (Homo sapiens, UniProt P51813); experiment: Differential scanning fluorimetry (DSF); assay type: binding; conditions: for ΔTm at 100 µM: read-out: ΔTm; for Average Tm of BMX with compound: apo-BMX Tm 51.8-52.2 °C
T2 construct: Crystallization, data collection, and structure determination of BMX catalytic domain in; made in house; host or cells: Sf-9 insect cells
Method: We further characterized the binding interaction between JS24–JS27 and BMX by using differential scanning fluorimetry (DSF) and surface plasmon resonance (SPR). Purified recombinant human BMX protein (hBMX) was first subjected to thermal scanning in the absence and presence of JS24–JS27, and the respective protein melting temperature (Tm) calculated.
Differential Scanning Fluorimetry:
DSF was performed in MicroAmp™ EnduraPlate™ Optical 96 -Well Clear Reaction Plates
with Barcode (Applied Biosystems, Life Technologies, California, USA) using a QuantStudio
7 Flex Real-Time PCR System (Applied Biosystems). Pre-incubation of the protein with the
compound for 2 hours at 4 °C was required prior to DSF experiments. The final reaction mixture
(20 μL of total volume) contained 4 μg of His6-BMX, 4-fold of Protein Thermal Shift™ Dye
(Applied Biosystems) diluted in protein buffer solution, and 100 μM of compound. The
temperatures were obtained by taking the midpoint of each transition.

[12] = biological target: MERTK (Homo sapiens, UniProt Q12866); experiment: KINOMEscan binding; conditions: read-out: % Ctrl MERTK
Method: (§5) Therefore, we included the whole TEC, EGFR and JAK family in our screening, and the Src family and Lkb1, which also have a cysteine within the same sequence alignment. We also included kinases involved in upstream (Src, FAK, PI3K, mTOR, PDK1) and downstream (Akt, PAK1, TAM) regulation of BMX signaling pathway and non-receptor tyrosine protein kinase Abl.
(§6) Kinome selectivity was performed with DiscoverX KINOMEscan™ technology.

[13] = biological target: ERBB2 (Homo sapiens, UniProt P04626); experiment: KINOMEscan binding; conditions: read-out: % Ctrl ERBB2
ERBB2, sequence (P04626 23-1255): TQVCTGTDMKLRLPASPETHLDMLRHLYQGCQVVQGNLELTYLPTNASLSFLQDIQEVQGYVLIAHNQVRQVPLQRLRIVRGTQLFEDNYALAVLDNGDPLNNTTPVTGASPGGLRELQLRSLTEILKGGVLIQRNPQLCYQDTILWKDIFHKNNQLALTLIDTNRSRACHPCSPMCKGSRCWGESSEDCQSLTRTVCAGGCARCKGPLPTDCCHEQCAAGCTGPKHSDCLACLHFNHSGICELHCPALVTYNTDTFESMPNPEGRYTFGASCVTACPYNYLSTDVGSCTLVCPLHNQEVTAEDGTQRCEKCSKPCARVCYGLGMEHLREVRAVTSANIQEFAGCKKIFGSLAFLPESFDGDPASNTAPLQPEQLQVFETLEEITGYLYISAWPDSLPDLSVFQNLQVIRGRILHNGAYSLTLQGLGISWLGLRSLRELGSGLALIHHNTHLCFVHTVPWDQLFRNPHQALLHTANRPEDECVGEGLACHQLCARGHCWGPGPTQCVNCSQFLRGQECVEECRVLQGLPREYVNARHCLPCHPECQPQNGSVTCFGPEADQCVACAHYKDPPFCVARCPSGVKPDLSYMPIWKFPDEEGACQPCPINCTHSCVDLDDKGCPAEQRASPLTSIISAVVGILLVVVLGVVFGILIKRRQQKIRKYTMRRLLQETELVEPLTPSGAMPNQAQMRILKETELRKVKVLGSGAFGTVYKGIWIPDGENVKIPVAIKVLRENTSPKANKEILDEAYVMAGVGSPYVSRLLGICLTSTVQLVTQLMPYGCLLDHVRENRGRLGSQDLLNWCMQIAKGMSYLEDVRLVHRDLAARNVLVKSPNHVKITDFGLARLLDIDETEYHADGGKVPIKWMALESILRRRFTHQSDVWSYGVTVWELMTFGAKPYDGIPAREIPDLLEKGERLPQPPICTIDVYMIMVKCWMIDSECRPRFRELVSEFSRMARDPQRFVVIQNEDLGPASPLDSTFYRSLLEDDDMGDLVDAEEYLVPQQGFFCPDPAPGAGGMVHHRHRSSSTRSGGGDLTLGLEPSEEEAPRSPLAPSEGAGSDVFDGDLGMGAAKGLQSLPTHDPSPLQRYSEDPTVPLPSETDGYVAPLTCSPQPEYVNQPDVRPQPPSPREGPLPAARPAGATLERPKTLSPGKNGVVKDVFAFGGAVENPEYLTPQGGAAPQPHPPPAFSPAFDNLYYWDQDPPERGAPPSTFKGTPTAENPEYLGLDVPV
Method: Therefore, we included the whole TEC, EGFR and JAK family in our screening, and the Src family and Lkb1, which also have a cysteine within the same sequence alignment.
as §6

[14] = biological target: AXL (Homo sapiens, UniProt P30530); experiment: KINOMEscan binding; conditions: read-out: % Ctrl AXL
AXL, sequence (P30530 26-894): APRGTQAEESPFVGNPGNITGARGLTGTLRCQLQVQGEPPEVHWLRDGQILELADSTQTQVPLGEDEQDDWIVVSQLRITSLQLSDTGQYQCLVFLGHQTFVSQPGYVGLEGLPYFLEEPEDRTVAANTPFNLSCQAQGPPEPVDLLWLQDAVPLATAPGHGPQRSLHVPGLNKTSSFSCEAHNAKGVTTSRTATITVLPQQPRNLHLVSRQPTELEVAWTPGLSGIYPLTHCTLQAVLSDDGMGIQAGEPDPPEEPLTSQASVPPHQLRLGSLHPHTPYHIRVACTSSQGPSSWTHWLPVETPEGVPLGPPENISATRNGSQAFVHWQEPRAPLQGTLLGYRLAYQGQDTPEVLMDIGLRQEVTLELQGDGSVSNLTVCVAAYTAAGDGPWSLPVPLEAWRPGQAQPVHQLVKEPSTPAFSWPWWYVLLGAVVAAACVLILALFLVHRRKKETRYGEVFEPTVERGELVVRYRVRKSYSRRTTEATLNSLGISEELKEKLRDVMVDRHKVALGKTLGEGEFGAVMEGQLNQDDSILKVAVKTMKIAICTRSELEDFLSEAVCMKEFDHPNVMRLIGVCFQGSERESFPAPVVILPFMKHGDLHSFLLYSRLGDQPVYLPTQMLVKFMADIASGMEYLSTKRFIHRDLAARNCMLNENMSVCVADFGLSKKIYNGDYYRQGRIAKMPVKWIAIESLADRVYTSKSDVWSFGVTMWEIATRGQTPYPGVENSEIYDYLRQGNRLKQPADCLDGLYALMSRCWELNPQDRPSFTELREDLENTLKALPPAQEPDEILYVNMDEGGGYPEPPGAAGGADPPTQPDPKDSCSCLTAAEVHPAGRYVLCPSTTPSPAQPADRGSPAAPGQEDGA
Method: as §5, §6

[15] = biological target: PAK1 (Homo sapiens, UniProt Q13153); experiment: KINOMEscan binding; conditions: read-out: % Ctrl PAK1
PAK1, sequence (Q13153 whole entry): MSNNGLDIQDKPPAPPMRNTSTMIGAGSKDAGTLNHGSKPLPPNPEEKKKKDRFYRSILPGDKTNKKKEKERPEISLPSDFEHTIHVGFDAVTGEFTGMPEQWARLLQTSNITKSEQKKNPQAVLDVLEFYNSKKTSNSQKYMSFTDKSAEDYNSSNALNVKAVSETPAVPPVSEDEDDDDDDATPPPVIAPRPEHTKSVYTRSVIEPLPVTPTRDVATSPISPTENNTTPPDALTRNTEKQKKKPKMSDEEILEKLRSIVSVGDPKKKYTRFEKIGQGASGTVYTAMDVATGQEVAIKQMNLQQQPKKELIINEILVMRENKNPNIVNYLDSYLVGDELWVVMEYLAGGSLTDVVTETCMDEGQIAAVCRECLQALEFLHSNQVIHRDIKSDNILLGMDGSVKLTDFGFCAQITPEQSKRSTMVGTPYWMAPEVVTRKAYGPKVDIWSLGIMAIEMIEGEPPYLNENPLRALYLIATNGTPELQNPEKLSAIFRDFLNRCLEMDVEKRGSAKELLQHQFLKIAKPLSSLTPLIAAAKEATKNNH
Method: as §5, §6

[16] = biological target: PTK2 (Homo sapiens, UniProt Q05397); experiment: KINOMEscan binding; conditions: read-out: % Ctrl PTK2
PTK2, sequence (Q05397 whole entry): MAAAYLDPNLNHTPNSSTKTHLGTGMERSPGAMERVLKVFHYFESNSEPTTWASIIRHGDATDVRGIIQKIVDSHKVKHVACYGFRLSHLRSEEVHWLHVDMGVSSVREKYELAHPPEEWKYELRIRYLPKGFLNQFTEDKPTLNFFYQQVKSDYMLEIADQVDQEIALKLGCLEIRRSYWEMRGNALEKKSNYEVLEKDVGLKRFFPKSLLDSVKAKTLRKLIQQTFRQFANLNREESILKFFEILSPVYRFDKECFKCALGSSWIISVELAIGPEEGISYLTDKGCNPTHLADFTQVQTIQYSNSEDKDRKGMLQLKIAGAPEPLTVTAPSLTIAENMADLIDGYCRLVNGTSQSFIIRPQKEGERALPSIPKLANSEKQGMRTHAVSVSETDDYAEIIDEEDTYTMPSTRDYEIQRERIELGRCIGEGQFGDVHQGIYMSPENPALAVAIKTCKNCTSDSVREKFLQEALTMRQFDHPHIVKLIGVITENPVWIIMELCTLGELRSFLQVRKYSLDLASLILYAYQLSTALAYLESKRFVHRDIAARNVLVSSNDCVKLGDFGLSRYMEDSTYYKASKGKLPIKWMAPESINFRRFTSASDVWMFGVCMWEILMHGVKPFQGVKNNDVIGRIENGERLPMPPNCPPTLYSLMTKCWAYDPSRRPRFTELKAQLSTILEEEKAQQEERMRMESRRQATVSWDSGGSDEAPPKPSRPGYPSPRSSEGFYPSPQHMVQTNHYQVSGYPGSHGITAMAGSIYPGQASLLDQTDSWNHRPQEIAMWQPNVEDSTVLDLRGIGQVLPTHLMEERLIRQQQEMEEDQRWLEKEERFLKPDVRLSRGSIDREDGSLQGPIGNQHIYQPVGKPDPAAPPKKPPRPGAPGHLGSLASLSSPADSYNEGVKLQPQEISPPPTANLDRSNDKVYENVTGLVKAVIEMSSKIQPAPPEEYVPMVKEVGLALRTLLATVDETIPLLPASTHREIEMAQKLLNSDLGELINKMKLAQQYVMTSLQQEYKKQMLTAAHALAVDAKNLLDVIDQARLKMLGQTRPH
Method: as §5, §6

[17] = biological target: PDPK1 (Homo sapiens, UniProt O15530); experiment: KINOMEscan binding; conditions: read-out: % Ctrl PDPK1
PDPK1, sequence (O15530 whole entry): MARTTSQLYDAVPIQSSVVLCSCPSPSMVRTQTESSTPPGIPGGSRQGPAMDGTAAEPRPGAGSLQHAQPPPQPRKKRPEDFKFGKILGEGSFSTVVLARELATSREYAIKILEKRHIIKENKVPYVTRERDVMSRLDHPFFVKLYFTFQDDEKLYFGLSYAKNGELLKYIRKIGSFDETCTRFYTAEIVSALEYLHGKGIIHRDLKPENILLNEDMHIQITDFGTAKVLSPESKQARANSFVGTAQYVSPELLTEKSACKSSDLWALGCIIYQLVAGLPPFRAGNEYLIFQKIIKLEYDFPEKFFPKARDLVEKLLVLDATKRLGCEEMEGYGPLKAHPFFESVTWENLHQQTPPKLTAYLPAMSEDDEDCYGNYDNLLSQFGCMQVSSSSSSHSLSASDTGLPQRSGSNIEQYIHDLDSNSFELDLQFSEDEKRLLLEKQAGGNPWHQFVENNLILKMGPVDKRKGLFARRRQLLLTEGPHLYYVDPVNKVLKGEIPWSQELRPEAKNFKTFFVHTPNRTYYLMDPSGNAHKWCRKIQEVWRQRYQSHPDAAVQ
Method: as §5, §6

[18] = co-treatment with LY294002 (3 μM)
[19] = pH 6.8, PAMPA/Pe effective permeability
[20] = Experiment 4 of Fig. S3 = Fig. 1b, duplicate, mean ± S.D., read-out: BMX inhibition IC50

Papp ([2]; pH 6.8, PAMPA permeability): 6.8 ×10⁻⁶ cm/s
Papp [2, 19]: 6.8 ± 0.4 ×10⁻⁶ cm/s
solubility [3]: 1 µM (≈ 0.525 µg/mL)
GI50 ([4]; 96-well plates, mean of three experiments in triplicate): 1500 nM
k inact [5]: 0.335 min⁻¹ and 0.335 ± 0.001 min⁻¹
GI50 ([6]; PC-3, 96 h, 96-well plates, N.d. = no growth inhibition observed within the concentrations tested): 11400 ± 4100 nM
BTK potency gain (fold) relative to BMX-IN-1 [7]: 33 fold
IC50 [7]: 11.1 ± 0.8 nM
LE (BTK) ([7]; ligand efficiency): 0.29
LipE (BTK) ([7]; lipophilic efficiency): 4.00
IC50 ([8]; Experiment 2 of Fig. S3, control commercial BMX-IN-1, read-out: BMX IC50): 4.1 ± 0.3 nM
IC50 [8, 20]: 7.5 nM
LE (BMX) ([8]; ligand efficiency): 0.29
LipE (BMX) ([8]; lipophilic efficiency): 4.17
GI50 [9]: 7280 ± 370 nM
PAMPA/%R membrane retention [10]: 13±1%
ΔTm at 100 µM ([11]; 100 μM compound, versus apo-BMX): 11.34 ± 0.01 °C
Average Tm of BMX with compound ([11]; 100 μM compound): 63.57±0.01 °C
Structure (SMILES): C=CC(=O)Nc1cc(-n2c(=O)ccc3cnc4cc(-c5ccc(NS(C)(=O)=O)cc5)ccc4c32)ccc1C [JS24]
decrease in cell viability ([1]; co-treatment with AKT1/2 (1 μM), relative to control AKT1/2): 48%
cell viability reduction [1]: 44%
decrease in cell viability [1, 18]: 35%

Structure (SMILES): C=CC(=O)Nc1cc(C)cc(-n2c(=O)ccc3cnc4cc(-c5ccc(NS(C)(=O)=O)cc5)ccc4c32)c1 [JS25]
cell viability reduction [1]: 63%
decrease in cell viability [1, 18]: 59%
Papp ([2]; pH 6.8, PAMPA permeability): 3.8 ×10⁻⁶ cm/s
Papp [2, 19]: 3.8 ± 1.6 ×10⁻⁶ cm/s
solubility [3]: 0.1 µM (≈ 0.0525 µg/mL)
GI50 [4]: 6600 nM
GI50 ([6]; PC-3, 96 h): 12100 ± 700 nM
IC50 [7]: 5.8 ± 0.04 nM
IC50 [8, 20]: 3.5 nM
remaining binding at 1 µM [12]: 89%
remaining binding at 1 µM [13]: 89%
remaining binding at 1 µM [14]: 93%
remaining binding at 1 µM [15]: 100%
remaining binding at 1 µM [16]: 93%
PAMPA/%R membrane retention [10]: 10±18%
Average Tm of BMX with compound ([11]; 100 μM compound): 61.43±0.48 °C
ΔTm at 100 µM [11]: 9.3 ± 0.48 °C
remaining binding at 1 µM [17]: 92%
